# Data: US20060159676A1, “Methods for modulating angiogenesis, lymphangiogenesis, and apoptosis with apelin compositions” (priority 2005, published 2006)
# What was measured:
# endothelial cells = conditions: apelin 10 ng/ml, after 48 hours serum starvation; VEGF 50 ng/ml as comparison
# Experimental: To determine what effect, if any, apelin expression has on apoptosis, TUNEL assays were performed. […] Cells were stained with a DAPI stain (FIG. 21, Panels A, B, and C) or in the TUNEL assay which stains for broken DNA, indicating cells undergoing apoptosis (FIG. 21, Panels D, E, and F).
# [1] = tested on: lymphatic endothelial cells; assay: In vivo lymphatic cell number assay, quail CAM (Prox1 staining); conditions: collagen disk with 50 ng apelin or 100 ng VEGF-C on CAM of 7 day quail embryos, 18 hours
# Experimental: All experiments were carried out using chorioallantoic membranes (CAMs) of quail embryos. Quail embryos used for the lymphatic experiments were 7 days old. Collagen purified from rat tails (Bernanke and Markwald, 1982) was polymerized in 2 mm disks at a final concentration of approximately 1.6 mg/ml in standard phosphate buffered saline (PBS). The total volume of the collagen disk was approximately 10 μl. For experimental treatments, the collagen disks were supplemented with either 50 ng of apelin peptide or 100 ng of VEGF-C protein prior to polymerization at 37° C. for 30 minutes. The VEGF-C was a positive control for these experiments. (Recombinant Human VEGF-C (Cys156Ser), R&D Systems, cat # 752-vc). Apelin peptide was synthesized by Sigma-Genosys (>90% purity). […]
# (§1) The samples were incubated with primary antibody (Prox1, Research Diagnostics, cat # RDI-102PA30, diluted to 2 μg/ml final concentration) for 4 hours at room temperature or overnight at 4° C. […] Both the lymphatic cell number as well as the number of lymphatic branches were determined.
# Assays for lymphatic cell number were carried out in areas of the CAM that were close to the location of the collagen disk as described above. Since Prox1 specifically stains lymphatic endothelial cell nuclei, the number of cells in the lymphatic branches was counted directly. […]
# lymphatic vessels = assay: In vivo lymphatic vessel branching assay, quail CAM; conditions: collagen disk with 50 ng apelin or 100 ng VEGF-C on CAM of 7 day quail embryos, 18 hours
# Experimental: All experiments were carried out using chorioallantoic membranes (CAMs) of quail embryos. Quail embryos used for the lymphatic experiments were 7 days old. Collagen purified from rat tails (Bernanke and Markwald, 1982) was polymerized in 2 mm disks at a final concentration of approximately 1.6 mg/ml in standard phosphate buffered saline (PBS). The total volume of the collagen disk was approximately 10 μl. For experimental treatments, the collagen disks were supplemented with either 50 ng of apelin peptide or 100 ng of VEGF-C protein prior to polymerization at 37° C. for 30 minutes. The VEGF-C was a positive control for these experiments. (Recombinant Human VEGF-C (Cys156Ser), R&D Systems, cat # 752-vc). Apelin peptide was synthesized by Sigma-Genosys (>90% purity).
# For lymphangiogenesis assays, the CAMs of 7 day quail embryos were exposed, in ovo, and the collagen disks were placed directly onto the surface of the CAM. […]
# as §1
# Both blood vessels and lymphatic vessels were stained with the QH-1 antibody. […] The number of lymphatic vessels branching away from blood vessels (towards the collagen disk) were counted. […]
# [2] = tested on: SVEC cells (lymphatic endothelial cell line SVEC4-10); conditions: apelin 10 ng/ml, overnight serum starve, 8 hours of treatment
# Experimental: Cell migration assays as described above were performed with SVEC cells. Apelin was provided at a concentration of 10 ng/ml, and VEGF-C was provided at a concentration of 100 ng/ml.
substance,measurement,setting,value
Apelin-13,apoptosis (TUNEL staining),endothelial cells,"anti-apoptotic effect on endothelial cells, to the same extent as VEGF"
same,lymphatic cell number (Prox1 positive nuclei),[1],mitogenic factor for lymphatic endothelial cells
same,number of lymphatic vessels branching away from blood vessels,lymphatic vessels,positive regulator of lymphatic branching angiogenesis
same,lymphatic endothelial cell migration,[2],chemotactic agent for lymphatic endothelial cells
